The values below come from ChEMBL document CHEMBL5038640, “Natural Berberine-derived Azolyl Ethanols as New Structural Antibacterial Agents against Drug-Resistant Escherichia coli” (J Med Chem, 2022).

Series [1] concerns Staphylococcus aureus. The series is described as follows: Antibacterial activity against methicillin-resistant Staphylococcus aureus N315 assessed as decrease in bacterial growth incubated for 18 hrs by broth microdilution method. The series is classed as functional. (In general: In broth dilution the organism is exposed to a series of concentrations in liquid medium.)
Series [2] concerns Enterococcus faecalis. The series is described as follows: Antibacterial activity against Enterococcus faecalis assessed as decrease in bacterial growth incubated for 18 hrs by broth microdilution method. In kind it is functional.
For series [3], the system named is Staphylococcus aureus. The series is described as follows: Antibacterial activity against Staphylococcus aureus assessed as decrease in bacterial growth incubated for 18 hrs by broth microdilution method. In kind it is functional.
Series [4] relates to Staphylococcus aureus. The series is described as follows: Antibacterial activity against Staphylococcus aureus ATCC 25923 assessed as decrease in bacterial growth incubated for 18 hrs by broth microdilution method. In kind it is functional.
The test system of series [5] is Staphylococcus aureus. Description: Antibacterial activity against Staphylococcus aureus ATCC 29213 assessed as decrease in bacterial growth incubated for 18 hrs by broth microdilution method. In kind it is functional.
In series [6] the test system is Klebsiella pneumoniae. The series is described as follows: Antibacterial activity against Klebsiella pneumoniae assessed as decrease in bacterial growth incubated for 18 hrs by broth microdilution method. In kind it is functional.
The subject of series [7] is Escherichia coli. Description: Antibacterial activity against Escherichia coli assessed as decrease in bacterial growth incubated for 18 hrs by broth microdilution method. The series is classed as functional.
Series [8] deals with Pseudomonas aeruginosa. The series is described as follows: Antibacterial activity against Pseudomonas aeruginosa assessed as decrease in bacterial growth incubated for 18 hrs by broth microdilution method. In kind it is functional.
Series [9] has as its system Acinetobacter baumannii. The series is described as follows: Antibacterial activity against Acinetobacter baumannii assessed as decrease in bacterial growth incubated for 18 hrs by broth microdilution method. The series is classed as functional.
The subject of series [10] is Pseudomonas aeruginosa. Description: Antibacterial activity against Pseudomonas aeruginosa ATCC 27853 assessed as decrease in bacterial growth incubated for 18 hrs by broth microdilution method. The series is classed as functional.
The subject of series [11] is Escherichia coli. Description: Antibacterial activity against Escherichia coli ATCC 25922 assessed as decrease in bacterial growth incubated for 18 hrs by broth microdilution method. In kind it is functional.
The subject of series [12] is Escherichia coli. The series is described as follows: Induction of bacterial resistance in Escherichia coli assessed as fold increase in MIC measured after 16 days by resistance development assay. The series is classed as functional. Particulars: time 16.0 day.
Series [13] concerns Escherichia coli. The series is described as follows: Anti-bioflim activity against Escherichia coli assessed as inhibition of bioflim formation at MIC incubated for 24 hrs followed by compound washout by crystal violet staining based assay. The series is classed as functional.
Series [14] relates to Cell membrane. Description: Induction of membrane disruption in Escherichia coli at 2 times of MIC incubated for 6 hrs by DAPI staining and propidium iodide staining based fluorescence assay. The series is classed as subcellular.
Series [15] concerns Escherichia coli. Description: Antibacterial activity against Escherichia coli assessed as reduction in metabolic activity in presence of resazurin measured after 6 hrs by alamar blue assay. The series is classed as functional, organism-based.
In series [16] the test system is Calf thymus DNA. The series is described as follows: Binding affinity to calf thymus DNA assessed as red shift in absorption spectra at pH 7.4 by UV-vis absorption spectroscopy. The series is classed as nucleic-acid assay. The following applies: Bos taurus.
Series [17] concerns Cell membrane. The series is described as follows: Induction of cell membrane disruption in Escherichia coli assessed as increase in protein leakage upto 0.192 mM by Bradford assay. The series is classed as subcellular. The following applies: dose mM <=0.192.
The test system of series [18] is Cell membrane. The series is described as follows: Induction of cell membrane disruption in Escherichia coli assessed as increase in protein leakage upto 0.224 mM by Bradford assay. In kind it is subcellular. Particulars: dose mM <=0.224.
Series [19] can be described thus: Aqueous solubility of the compound in saline. In kind it is physicochemical.
The nature of series [20]: Hemolytic activity against human RBC assessed as 50% hemolysis measured upto 64 times of MIC after 1 to 8 hr. The series is classed as toxicity, cell-based. Particulars: erythrocyte, time 1-8 hrs.
The nature of series [21]: Cytotoxicity against human FHC cells assessed as cell viability upto 0.100 mM incubated for 24 hrs by MTT assay. The series is classed as toxicity, cell-based. The following applies: read-out: Activity. (In general: Tetrazolium dyes change colour on reduction, which living cells bring about.)
Series [22] is described as follows: Cytotoxicity against human PNT1A cells assessed as cell viability upto 0.100 mM incubated for 24 hrs by MTT assay. The series is classed as toxicity, cell-based. Particulars: read-out: Activity.
The test system of series [23] is A549. Description: Cytotoxicity against human A549 cells assessed as cell viability upto 0.100 mM incubated for 24 hrs by MTT assay. The series is classed as functional, cell-based. Particulars: dose mM <=0.100, time 24.0 hrs.
Series [24] deals with Escherichia coli. The series is described as follows: Biofilm disruption activity in Escherichia coli at MIC incubated for 24 hrs by crystal violet staining based assay. The following applies: dose 0.007 mM. In kind it is functional.
Series [25] deals with Escherichia coli. The series is described as follows: Biofilm disruption activity in Escherichia coli assessed as reduction in exo-polysaccharide incubated for 24 hrs by crystal violet staining based assay. The series is classed as functional, organism-based.
The test system of series [26] is Escherichia coli. Description: Bactericidal activity against Escherichia coli assessed as reduction in colony formation at 8 times MIC measured after upto 6 hrs by time kill assay. The series is classed as functional, organism-based. The following applies: time hrs <=6.
For series [27], the system named is Escherichia coli. Description: Induction of bacterial resistance in Escherichia coli assessed as change in MIC measured after 16 days by resistance development assay. The series is classed as functional. The following applies: time 16.0 day.
For series [28], the system named is Cell membrane. The series is described as follows: Induction of Inner membrane permeabilization in Escherichia coli assessed as increase in fluorescence intensity at MIC incubated for 6 hrs by PI staining based assay. The series is classed as subcellular.
For series [29], the system named is Cell membrane. Description: Induction of outer membrane permeabilization in Escherichia coli assessed as increase in fluorescence intensity at MIC incubated for 6 hrs by NPN-dye based fluorescence assay. In kind it is subcellular.
For series [30], the system named is DNA. Description: Competitive binding affinity to Escherichia coli DNA assessed as DNA intercalation by AO staining based assay. In kind it is nucleic-acid assay.
The test system of series [31] is Escherichia coli. Description: Biofilm disruption activity in Escherichia coli assessed as mass loss of biofilm upto 0.096 mM incubated for 24 hrs by crystal violet staining based assay. Particulars: dose mM <=0.096, time 24.0 hrs. In kind it is functional, organism-based.
Series [32] concerns Escherichia coli. Description: Induction of intracellular ROS production in Escherichia coli assessed as increase in ROS accumulation at 0.006 to 0.192 mM incubated for 6 hrs by DCFH-DA assay. The following applies: dose 0.006-0.192 mM. In kind it is functional, organism-based.
In series [33] the test system is Cell membrane. Description: Induction of membrane depolarization in Escherichia coli at 0.006 to 0.096 mM incubated for 6 hrs by DiSC35 dye-based fluorescence assay. In kind it is subcellular. The following applies: dose 0.006-0.096 mM.
Series [34] concerns Escherichia coli. Description: Induction of intracellular ROS production in Escherichia coli assessed as increase in ROS accumulation at 0.007 to 0.224 mM incubated for 6 hrs by DCFH-DA assay. The following applies: dose 0.007-0.224 mM. In kind it is functional, organism-based.
The test system of series [35] is Cell membrane. Description: Induction of membrane depolarization in Escherichia coli at 0.007 to 0.112 mM incubated for 6 hrs by DiSC35 dye-based fluorescence assay. In kind it is subcellular. Particulars: dose 0.007-0.112 mM.
Series [36] deals with Escherichia coli. The series is described as follows: Biofilm disruption activity in Escherichia coli assessed as mass loss of biofilm upto 0.112 mM incubated for 24 hrs by crystal violet staining based assay. The series is classed as functional, organism-based. Particulars: dose mM <=0.112, time 24.0 hrs.

In brackets after ≈: the same amount, converted by molar mass. Activity calls are given as the source filed them. The calls are words filed in the database; no cut-off is given here.

In the case of `CCn1cc(C(=O)O)c(=O)c2cc(F)c(N3CCNCC3)cc21` [NORFLOXACIN], the MIC – broadly, the least concentration at which growth counts as inhibited – in series [1] amounted to 25 µM (≈ 7.98 µg/mL); in [2] it was 6 µM (≈ 1.92 µg/mL); in series [3], 2 µM (≈ 0.639 µg/mL); in [4] it was 13 µM (≈ 4.15 µg/mL); in [5], 100 µM (≈ 31.9 µg/mL); in series [6], 6 µM (≈ 1.92 µg/mL). Moreover, the MIC in [7] was found to be 13 µM (≈ 4.15 µg/mL); in series [8] it was 25 µM (≈ 7.98 µg/mL); in [9], 6 µM (≈ 1.92 µg/mL); in series [10], 200 µM (≈ 63.9 µg/mL); in series [11], 13 µM (≈ 4.15 µg/mL). The fold change (FC) in [12] came to 64.
Regarding `COc1ccc2cc3[n+](cc2c1OCC(O)CSc1nc2ccccc2s1)CCc1cc2c(cc1-3)OCO2.[Br-]` (stereo not given), the “inhibition (INH)” value in series [13] came out at 21.87%. Besides, the result in series [14], in series [15], in series [16], in series [17], in series [18] and in series [25] was Active. Further, the result in series [26], in series [28], in series [29], in series [30], in series [32] and in series [33] was Active. For the same compound, the MIC in [1] was determined as 6 µM; in series [2], 51 µM; in series [3], 51 µM; in series [4] it was 13 µM; in series [5] it was 51 µM; in series [6] it was 13 µM. Besides, the MIC in [7] stood at 6 µM; in series [8], 102 µM; in [9], 26 µM; in [10] it was 51 µM; in series [11], 51 µM. The solubility – broadly, the concentration that dissolves in the medium under given conditions – in series [19] was determined as 770 µM. The Activity entry was “Non-Toxic” in [20], 15% in [24] and “Dose-Dependent Effect” in [31]. Further, the viability at 24 h in [21] and in [22] was 70% each time. Also, the outcome in series [23], in [27] and in series [12] was inactive.
As to `COc1ccc2cc3[n+](cc2c1OCC(O)Cn1c([N+](=O)[O-])cnc1C)CCc1cc2c(cc1-3)OCO2.[Br-]` (stereo not given), the “inhibition (INH)” value in series [13] is given as 28.25%. Moreover, the outcome in [14], in series [15], in series [34], in series [16], in series [17] and in series [18] was Active. In addition, the outcome in series [25], in series [26], in [35], in [28], in [29] and in [30] was Active. The MIC is 14 µM in series [1]; 14 µM in series [2]; 109 µM in series [3]; 55 µM in [4]; 55 µM in series [5]; 27 µM in [6]. The MIC in series [7] was found to be 7 µM; in series [8] it was 55 µM; in [9], 14 µM; in series [10], 55 µM; in series [11] it was 55 µM. The amount in solution in series [19] (solubility) came to 908 µM. Besides, the Activity result in series [20] was “Non-Toxic”; in [24], 40%; in series [36], “Dose-Dependent Effect”. For the same compound, the viability at 24 h in series [21] and in [22] was 70% each time. The outcome in series [23], in series [27] and in series [12] was inactive.
On to `COc1ccc2cc3[n+](cc2c1OCC(O)CSc1nccn1C)CCc1cc2c(cc1-3)OCO2.[Br-]` (stereo not given), for which the minimum inhibitory concentration (MIC) in series [1] was 56 µM; in series [2], 56 µM; in [3] it was 112 µM; in series [4], 56 µM; in [5], 112 µM; in [6], 112 µM. In addition, the minimal inhibitory concentration (MIC) in [7] was determined as 28 µM; in series [8], 112 µM; in series [9], 56 µM; in series [10], 112 µM; in series [11], 112 µM. This compound also gave a solubility in [19] of 791 µM.
